Results taken from ChEMBL document CHEMBL5226276, “Molecules with versatile biological activities bearing antipyrinyl nucleus as pharmacophore” (Eur J Med Chem, 2020).
In brackets after ≈: the same amount, converted by molar mass.

What was measured:
[1] = Antioxidant activity assessed as DPPH radical scavenging activity incubated for 30 mins under dark condition; type: functional
[2] = Toxicity in brine shrimp assessed as lethal dose incubated for 24 hrs; details: artemia salina
Bacillus cereus = assay: Antibacterial activity against Bacillus cereus assessed as inhibition of bacterial growth incubated for 24 hrs by filter paper disc diffusion assay; type: functional
Salmonella typhimurium = assay: Antibacterial activity against Salmonella enterica subsp. enterica serovar Typhimurium assessed as inhibition of bacterial growth incubated for 24 hrs by filter paper disc diffusion assay; type: functional
[3] = test system: Mycobacterium tuberculosis; assay: Antimycobacterial activity against Mycobacterium tuberculosis H37Rv assessed as inhibition of bacterial growth at 1.56 to 100 ug/ml incubated for 6 days by alamar blue dye based broth microdilution assay; type: functional; details: dose 1.56-100 µg/ml; time 6 day; at 1.56 to 100 µg/mL
Staphylococcus aureus = assay: Antimicrobial activity against Staphylococcus aureus assessed as inhibition of microbial growth incubated for 24 hrs by well dilution assay based UV-Vis spectroscopy; type: functional
Escherichia coli = assay: Antimicrobial activity against Escherichia coli assessed as inhibition of microbial growth incubated for 24 hrs by well dilution assay based UV-Vis spectroscopy; type: functional
Klebsiella pneumoniae = assay: Antimicrobial activity against Klebsiella pneumoniae assessed as inhibition of microbial growth incubated for 24 hrs by well dilution assay based UV-Vis spectroscopy; type: functional
Proteus vulgaris = assay: Antimicrobial activity against Proteus vulgaris assessed as inhibition of microbial growth incubated for 24 hrs by well dilution assay based UV-Vis spectroscopy; type: functional
Pseudomonas aeruginosa = assay: Antimicrobial activity against Pseudomonas aeruginosa assessed as inhibition of microbial growth incubated for 24 hrs by well dilution assay based UV-Vis spectroscopy; type: functional
Aspergillus niger = assay: Antimicrobial activity against Aspergillus niger assessed as inhibition of microbial growth incubated for 48 hrs by well dilution assay based UV-Vis spectroscopy; type: functional
Macrophomina phaseolina = assay: Antimicrobial activity against Macrophomina phaseolina assessed as inhibition of microbial growth incubated for 48 hrs by well dilution assay based UV-Vis spectroscopy; type: functional
Candida albicans = assay: Antimicrobial activity against Candida albicans assessed as inhibition of microbial growth incubated for 48 hrs by well dilution assay based UV-Vis spectroscopy; type: functional
Rhizopus stolonifer = assay: Antimicrobial activity against Rhizopus stolonifer assessed as inhibition of microbial growth incubated for 48 hrs by well dilution assay based UV-Vis spectroscopy; type: functional
Aspergillus flavus = assay: Antimicrobial activity against Aspergillus flavus assessed as inhibition of microbial growth incubated for 48 hrs by well dilution assay based UV-Vis spectroscopy; type: functional
[4] = test system: Mycobacterium tuberculosis; assay: Antimycobacterial activity against Mycobacterium tuberculosis H37Rv assessed as inhibition of bacterial growth incubated for 6 days by alamar blue dye based broth microdilution assay; type: functional; details: time 6 day
[5] = Antioxidant activity assessed as DPPH radical scavenging activity by spectrophotometric assay; type: functional
[6] = Antioxidant activity assessed as DPPH radical scavenging activity incubated for 30 mins under dark condition by spectrophotometric assay; type: functional
[7] = Antioxidant activity assessed as DPPH radical scavenging activity; type: functional

`Cc1c(/N=C/c2ccccc2)c(=O)n(-c2ccccc2)n1C` showed an IC50 [1] of 31.3 µM.

With `Cc1c(/N=C/c2ccc(Cl)cc2)c(=O)n(-c2ccccc2)n1C` the LC50 [2] was 225 ppm.

`Cc1c(/N=C/c2ccc(O)c(O)c2)c(=O)n(-c2ccccc2)n1C` showed an LC50 [2] of 481 ppm.

`Cc1c(/N=C/c2ccc(O)cc2O)c(=O)n(-c2ccccc2)n1C` gave an LC50 [2] of 581 ppm.

Work on `COc1ccccc1/C=N/c1c(C)n(C)n(-c2ccccc2)c1=O` yielded an MIC (Bacillus cereus) of 12.5 µg/mL (≈ 38.9 µM) and an MIC (Salmonella typhimurium) of 50 µg/mL (≈ 156 µM).

With `COc1cccc(-c2csc(N/N=c3\c(/N=C/c4ccccc4)c(C)n(C)n3-c3ccccc3)n2)c1` the “inhibition (INH)” value [3] was 90%.

In the case of `Cc1c(/N=C/c2ccccc2)/c(=N\Nc2nc(-c3ccccc3)cs2)n(-c2ccccc2)n1C`, the “inhibition (INH)” value [3] is reported as 90%.

For `Cc1c(/N=C/c2ccco2)/c(=N\c2ccccc2)n(-c2ccccc2)n1C`, the MIC (Staphylococcus aureus) was 16 µg/mL, the MIC (Escherichia coli) was 16 µg/mL and the MIC (Klebsiella pneumoniae) was 16 µg/mL. For the same molecule, the MIC (Proteus vulgaris) was 16 µg/mL, the MIC (Pseudomonas aeruginosa) was 16 µg/mL and the MIC (Aspergillus niger) was 6 µg/mL. It also gave an MIC (Macrophomina phaseolina) of 6 µg/mL, an MIC (Candida albicans) of 6 µg/mL and an MIC (Rhizopus stolonifer) of 6 µg/mL. It also gave an MIC (Aspergillus flavus) of 6 µg/mL.

In the case of `Cc1c(/N=C/c2ccc(Cl)cc2)/c(=N\Nc2nc(-c3ccccc3)cs2)n(-c2ccccc2)n1C`, the “inhibition (INH)” value [3] is reported as 90%.

For `Cc1c(/N=C/c2ccc(O)cc2)/c(=N\Nc2nc(-c3ccccc3)cs2)n(-c2ccccc2)n1C`, the “inhibition (INH)” value [3] was 90%.

In the case of `Cc1c(/N=C/c2ccccc2)/c(=N\Nc2nc(-c3ccc(O)c(O)c3)cs2)n(-c2ccccc2)n1C`, the “inhibition (INH)” value [3] is reported as 90%.

`Cc1c(/N=C/c2ccco2)/c(=N\c2ccc([N+](=O)[O-])cc2)n(-c2ccccc2)n1C` gave an MIC (Staphylococcus aureus) of 16 µg/mL, an MIC (Escherichia coli) of 16 µg/mL and an MIC (Klebsiella pneumoniae) of 16 µg/mL. For the same molecule, the MIC (Proteus vulgaris) was 16 µg/mL, the MIC (Pseudomonas aeruginosa) was 16 µg/mL and the MIC (Aspergillus niger) was 6 µg/mL. The MIC (Macrophomina phaseolina) was 6 µg/mL, the MIC (Candida albicans) was 6 µg/mL and the MIC (Rhizopus stolonifer) was 6 µg/mL. For the same molecule, the MIC (Aspergillus flavus) was 6 µg/mL.

For `COc1cc(-c2csc(N/N=c3\c(/N=C/c4ccccc4)c(C)n(C)n3-c3ccccc3)n2)ccc1O`, the “inhibition (INH)” value [3] was 90%.

With `Cc1c(/N=C/c2ccccc2)/c(=N\Nc2nc(-c3ccc([N+](=O)[O-])cc3)cs2)n(-c2ccccc2)n1C` the “inhibition (INH)” value [3] was 90%.

For `Cc1c(/N=C/c2cccc(F)c2)/c(=N\Nc2nc(-c3ccccc3)cs2)n(-c2ccccc2)n1C`, the “inhibition (INH)” value [3] was 90%.

For `Cc1c(/N=C/c2cccc(Cl)c2)/c(=N\Nc2nc(-c3ccccc3)cs2)n(-c2ccccc2)n1C`, the “inhibition (INH)” value [3] was 90%.

For `Cc1c(/N=C/c2ccccc2Cl)/c(=N\Nc2nc(-c3ccccc3)cs2)n(-c2ccccc2)n1C`, the “inhibition (INH)” value [3] was 90%.

With `Cc1c(/N=C/c2ccccc2)/c(=N\Nc2nc(-c3ccc(O)cc3O)cs2)n(-c2ccccc2)n1C` the “inhibition (INH)” value [3] was 90% and the MIC [4] was 0.648 10^-3micromol/ml.

With `COc1ccccc1/N=N/c1ccc(O)c2ncccc12` the IC50 [5] was 72 µg/mL (≈ 258 µM).

With `Cc1c(/N=C/c2ccccc2)/c(=N\Nc2nc(-c3ccc(N(C)C)cc3)cs2)n(-c2ccccc2)n1C` the “inhibition (INH)” value [3] was 90%.

With `Cc1c(/N=C/c2ccco2)/c(=N\c2ccc(O)cc2)n(-c2ccccc2)n1C` the MIC (Staphylococcus aureus) was 16 µg/mL, the MIC (Escherichia coli) was 16 µg/mL and the MIC (Klebsiella pneumoniae) was 16 µg/mL. For the same molecule, the MIC (Proteus vulgaris) was 16 µg/mL, the MIC (Pseudomonas aeruginosa) was 16 µg/mL and the MIC (Aspergillus niger) was 6 µg/mL. The MIC (Macrophomina phaseolina) was 6 µg/mL, the MIC (Candida albicans) was 6 µg/mL and the MIC (Rhizopus stolonifer) was 6 µg/mL. For the same molecule, the MIC (Aspergillus flavus) was 6 µg/mL.

With `Cc1cc(C(C)(C)C)c(O)c(C(C)(C)C)c1` [BUTYLATED HYDROXYTOLUENE] the IC50 [5] was 31 µg/mL (≈ 141 µM), the IC50 [6] was 32 µg/mL (≈ 145 µM) and the IC50 [7] was 32 µg/mL (≈ 145 µM).

Work on `O=C(O)c1cc(O)c(O)c(O)c1` [GALLIC ACID] yielded an LC50 [2] of 78 ppm.
